The values below come from EP2830605B1, “A COMBINATION MEDICAMENT COMPRISING PHENYLEPHRINE AND PARACETAMOL” (priority 2013, dated 2014).

For data set [1] the following is noted: in vivo.
The conditions of data set [2]: cited from earlier work.

Structures can show the parent of a compound that is named as a salt. Where two headings read alike, the source gives them in different places.

For the compound `CNC[C@H](O)c1cccc(O)c1` [10 mg phenylephrine hydrochloride, phenylephrine hydrochloride], in data set [1] (human), the “Ratio (increase of AUCtot), calculation for paracetamol 650 mg” value is recorded as roughly 1.73. In data set [1], the “dose of phenylephrine hydrochloride alone that is similar” value fell in the range of 16 to 20 mg. Further, the “Adverse Event Rate” value in data set [2] (dose 10mg, hydrochloride) is listed as 12.5%; in data set [2] (dose 10mg, listed as Phenylephrine HCL, hydrochloride), 12.5%; in data set [2] (dose 15mg), 43.8%; in data set [2] (dose 25mg), 81.3%.
